{
  "source": "patent US20060147898A1",
  "about": "“Cell microchip” (NITTO DENKO CORPORATION, priority 2003, published 2006)",
  "system": "rat breast cancer cell MTF7",
  "experiment": "Action of 5ALA on MTF7 cells in the cell microchip (fluorescence and growth after Ar ion laser irradiation)",
  "type": "cell-based",
  "procedure": "The cell microchip prepared in Example 1 was used to examine the action of […] (5ALA) on rat breast cancer cell MTF7 according to a method described in Journal of Japan Society for Laser Surgery and Medicine, Vol. 17, No. 1, pp. 1-10 (1996).\nMTF7 was provided by Dr. Stephan P. Tomasovic, M. D. Anderson Cancer Center, […], US. MTF7 was proliferated in an a-MEM medium (Sigma Corporation) supplemented with 10% fetal calf serum (FCS) in an incubator for cell culture (37° C. in 5% CO2 under humidity).\nThe cell microchip (FIG. 4) prepared in Example 1 was placed in a 90 mmf Petri dish, and the flow channel (A) 33, flow channel (B) 34 and flow channel (C) 35 were filled with the above medium. […]\nThen the cell microchip wherein the MTF7 cells had been proliferated was removed from the Petri dish, and the above medium was injected via a micro pump into the liquid reservoir 37 of the flow channel (A) 33, and while the above medium containing 5ALA manufactured by Sigma Corporation) at various concentrations (25, 50, 100, 200 and 400 mg/ml) was injected into the liquid reservoir 37 of the flow channel (B) 34, the cells were observed under a fluorescence microscope equipped with the incubator. […] The cells into which the 5ALA-containing medium had not been injected emitted no fluorescence.",
  "data": [
    {"smiles": "NCC(=O)CCC(=O)O", "note": "[5ALA, d-aminolevulinic acid]", "values": [
      {"measurement": "emission of fluorescence under a fluorescence microscope", "setting": "MTF7 cells at 3-pronged junction, medium containing 5ALA at 25, 50, 100, 200 and 400 mg/ml, irradiated with Ar ion laser at 488 nm, 200 mW", "result": "emission of fluorescence was observed"},
      {"measurement": "cell growth / survival on continued culture after laser irradiation", "setting": "MTF7 cells emitting fluorescence (5ALA-containing medium), observed with time under a microscope after Ar ion laser irradiation at 488 nm", "result": "terminated their growth and fell eventually into death"}
    ]}
  ]
}
